For this assay, the system named is BDF1 mice, Friend leukemia sc, tumor weight T/C. The experiment in a line: NCI In Vivo Anticancer Drug Screen. Data for tumor model Friend Virus Leukemia (Solid) (subcutaneous) in B6D2F1 (BDF1) mice. The note with it: endpoint: mean tumor weight, higher = larger tumour. The procedure:
The antitumor activity of compounds was measured in mice bearing transplantable tumors. Survival or tumor size were measured and the results are expressed as the measurement made in the treated group (T) divided by the measurement made in the vehicle treated control group (C). The tumor model used in this assay is Friend Virus Leukemia (Solid) (subcutaneous) in B6D2F1 (BDF1) mice

[1] abbreviates: dose: 0.5 mg/kg/injection, schedule: Q01DX011 (sc), vehicle: steriod suspending solution.
Where [2] appears, read: dose: 1.0 mg/kg/injection, schedule: Q01DX011 (sc), vehicle: steriod suspending solution.
Setting [3] is: dose: 3.0 mg/kg/injection, schedule: Q01DX011 (sc), vehicle: steriod suspending solution.
[4] abbreviates: dose: 6.0 mg/kg/injection, schedule: Q01DX011 (sc), vehicle: steriod suspending solution.
Setting [5] is: dose: 62.5 mg/kg/injection, schedule: Q01DX011 (ip), vehicle: carboxymethylcellulose (CMC).
Setting [6] is: dose: 125.0 mg/kg/injection, schedule: Q01DX011 (ip), vehicle: carboxymethylcellulose (CMC).
The mark [7] stands for this setting: dose: 5.0 mg/kg/injection, schedule: Q01DX011 (ip), vehicle: carboxymethylcellulose (CMC).
Setting [8] is: dose: 10.0 mg/kg/injection, schedule: Q01DX011 (ip), vehicle: carboxymethylcellulose (CMC).
The mark [9] stands for this setting: dose: 15.0 mg/kg/injection, schedule: Q01DX011 (ip), vehicle: carboxymethylcellulose (CMC).
[10] abbreviates: dose: 25.0 mg/kg/injection, schedule: Q01DX011 (ip), vehicle: carboxymethylcellulose (CMC).
[11] abbreviates: dose: 31.0 mg/kg/injection, schedule: Q01DX011 (ip), vehicle: carboxymethylcellulose (CMC).
Setting [12] is: dose: 250.0 mg/kg/injection, schedule: Q01DX011 (ip), vehicle: carboxymethylcellulose (CMC).
[13] abbreviates: dose: 500.0 mg/kg/injection, schedule: Q01DX011 (ip), vehicle: carboxymethylcellulose (CMC).
[14] abbreviates: dose: 50.0 mg/kg/injection, schedule: Q01DX011 (ip), vehicle: carboxymethylcellulose (CMC).
[15] abbreviates: dose: 3.0 mg/kg/injection, schedule: Q01DX011 (ip), vehicle: carboxymethylcellulose (CMC).
Where [16] appears, read: dose: 6.0 mg/kg/injection, schedule: Q01DX011 (ip), vehicle: carboxymethylcellulose (CMC).
Where [17] appears, read: dose: 62.0 mg/kg/injection, schedule: Q01DX011 (ip), vehicle: carboxymethylcellulose (CMC).

Where “and” joins values, the source holds several entries; their conditions need not be identical. Equal entries are not always repeated. Records with an inconclusive call do not appear.

Take `CCC(c1ccc(O)cc1)C(CC)c1ccc(OC)cc1` (centres undefined): the T/C reads like this: under setting [1], 86 % of control; under setting [2], 73 % of control; under setting [3], 60 % of control and 72 % of control; under setting [4], 61 % of control and 73 % of control; (dose: 12.0 mg/kg/injection, schedule: Q01DX011 (sc), vehicle: steriod suspending solution) 43 % of control; (dose: 25.0 mg/kg/injection, schedule: Q01DX011 (sc), vehicle: steriod suspending solution) 54 % of control and 48 % of control. In addition, the T/C is, setting by setting: (dose: 50.0 mg/kg/injection, schedule: Q01DX011 (sc), vehicle: steriod suspending solution) 38 % of control; (dose: 100.0 mg/kg/injection, schedule: Q01DX011 (sc), vehicle: steriod suspending solution) 43 % of control; (dose: 200.0 mg/kg/injection, schedule: Q01DX011 (sc), vehicle: steriod suspending solution) 36 % of control.

With `N#CCSc1nc(N)nc2nc[nH]c12`, the T/C is 83 % of control (dose: 31.25 mg/kg/injection, schedule: Q01DX011 (ip), vehicle: carboxymethylcellulose (CMC)); 40 % of control under setting [5]; 31 % of control under setting [6].

Take `c1ccc(CSc2ncnc3nc[nH]c23)cc1`: the T/C under setting [7] is 118 % of control, the T/C under setting [8] is 90 % of control, the T/C under setting [9] was 109 % of control and the T/C under setting [10] is 91 % of control.

With `c1ccc2c(c1)ccc1cc3c(ccc4ccccc43)cc12`, the T/C under setting [9] is 90 % of control; the T/C under setting [11] was 86 % of control; the T/C under setting [5] was 39 % of control; the T/C (dose: 63.0 mg/kg/injection, schedule: Q01DX011 (ip), vehicle: carboxymethylcellulose (CMC)) was 93 % of control; the T/C under setting [12] is 52 % of control; the T/C under setting [13] was 29 % of control.

As for `CCN(CC)CC(C)Nc1ccc(C)c2sc3ccccc3c(=O)c12` (centres undefined), the T/C by setting is: under setting [10], 103 % of control; under setting [14], 60 % of control.

Turning to `NC(=O)/C=C\C(=O)O` (tested in a mixture with another compound), the T/C reads like this: (dose: 31.0 mg/kg/injection, schedule: Q#A X022 (ip), vehicle: carboxymethylcellulose (CMC)) 85 % of control; (dose: 62.5 mg/kg/injection, schedule: Q#A X022 (ip), vehicle: carboxymethylcellulose (CMC)) 75 % of control; (dose: 125.0 mg/kg/injection, schedule: Q#A X022 (ip), vehicle: carboxymethylcellulose (CMC)) 65 % of control; (dose: 250.0 mg/kg/injection, schedule: Q#A X022 (ip), vehicle: carboxymethylcellulose (CMC)) 58 % of control.

With `O=CCC(O)C(O)C(O)CO` (centres undefined), the T/C was 89 % of control under setting [6]; 83 % of control under setting [12]; 48 % of control under setting [13]; 63 % of control (dose: 1000.0 mg/kg/injection, schedule: Q01DX011 (ip), vehicle: carboxymethylcellulose (CMC)).

Consider `CC1(C)CC(C)(c2ccccc2)c2ccccc21` (centres undefined), for which the T/C is, setting by setting: under setting [5], 68 % of control; under setting [6], 70 % of control; under setting [12], 67 % of control; under setting [13], 25 % of control.

As for `C=CCn1c(=O)n(CC=C)c(=O)n(CC=C)c1=O`, the T/C is, setting by setting: (dose: 22.5 mg/kg/injection, schedule: Q01DX011 (ip), vehicle: saline) 77 % of control; (dose: 45.0 mg/kg/injection, schedule: Q01DX011 (ip), vehicle: saline) 103 % of control; (dose: 90.0 mg/kg/injection, schedule: Q01DX011 (ip), vehicle: saline) 64 % of control; (dose: 180.0 mg/kg/injection, schedule: Q01DX011 (ip), vehicle: saline) 82 % of control.

As to `O=C(c1ccc(C(=O)N2CC2)cc1)N1CC1`, the T/C under setting [15] is 79 % of control; the T/C under setting [16] is 90 % of control; the T/C (dose: 12.0 mg/kg/injection, schedule: Q01DX011 (ip), vehicle: carboxymethylcellulose (CMC)) was 74 % of control; the T/C (dose: 24.0 mg/kg/injection, schedule: Q01DX011 (ip), vehicle: carboxymethylcellulose (CMC)) was 76 % of control.

Turning to `C[C@H]1C[C@H]2[C@@H]3CC[C@](O)(C(=O)CO)[C@@]3(C)C[C@H](O)[C@]2(F)[C@@]2(C)C=CC(=O)C=C12`, the T/C was 61 % of control and 63 % of control under setting [1]; 76 % of control and 91 % of control under setting [2]; 60 % of control and 74 % of control under setting [3]; 31 % of control under setting [4]; 47 % of control (dose: 7.0 mg/kg/injection, schedule: Q01DX011 (sc), vehicle: steriod suspending solution); 28 % of control (dose: 15.0 mg/kg/injection, schedule: Q01DX011 (sc), vehicle: steriod suspending solution). For the same molecule, the T/C runs as follows: (dose: 30.0 mg/kg/injection, schedule: Q01DX011 (sc), vehicle: steriod suspending solution) 17 % of control; (dose: 60.0 mg/kg/injection, schedule: Q01DX011 (sc), vehicle: steriod suspending solution) 10 % of control; (dose: 120.0 mg/kg/injection, schedule: Q01DX011 (sc), vehicle: steriod suspending solution) 5 % of control.

For `OCC1OC(n2cnc3c(=S)nc[nH]c32)C(O)C1O` (centres undefined), the T/C was 82 % of control and 92 % of control (dose: 0.1 mg/kg/injection, schedule: Q01DX011 (ip), vehicle: carboxymethylcellulose (CMC)); 45 % of control (dose: 0.25 mg/kg/injection, schedule: Q01DX011 (ip), vehicle: carboxymethylcellulose (CMC)); 54 % of control under setting [8]; 1 % of control and 8 % of control under setting [9]; 17 % of control under setting [10]; 13 % of control under setting [14]. The T/C by setting is: under setting [17], 2 % of control; (dose: 100.0 mg/kg/injection, schedule: Q01DX011 (ip), vehicle: carboxymethylcellulose (CMC)) 8 % of control; under setting [6], 1 % of control.

`CCOC(=O)NP(=O)(N1CC1(C)C)N1CC1(C)C` (centres undefined): the T/C runs as follows: (dose: 125.0 mg/kg/injection, schedule: Q01DX011 (ip), vehicle: saline) 73 % of control; (dose: 187.0 mg/kg/injection, schedule: Q01DX011 (ip), vehicle: saline) 101 % of control; (dose: 250.0 mg/kg/injection, schedule: Q01DX011 (ip), vehicle: saline) 65 % of control; (dose: 375.0 mg/kg/injection, schedule: Q01DX011 (ip), vehicle: saline) 24 % of control.

In the case of `O=[N+]([O-])c1ccccc1CSc1ncnc2nc[nH]c12`, the T/C was 112 % of control under setting [9]; 111 % of control under setting [11]; 55 % of control and 48 % of control under setting [17]; 26 % of control and 48 % of control under setting [6]; 7 % of control under setting [12]; 2 % of control under setting [13].

As for `C1CC[N-]CC1.C1CC[N-]CC1.C1CC[N-]CC1.C1CC[N-]CC1.[Cl][Co][Cl]`, under setting [14], the T/C is 160 % of control.

Take `O=C(Nc1ccc(C2=NCCCN2)cc1)c1ccc(C(=O)Nc2ccc(C3=NCCCN3)cc2)cc1`: the T/C is 121 % of control (dose: 0.75 mg/kg/injection, schedule: Q01DX011 (ip), vehicle: carboxymethylcellulose (CMC)); 102 % of control (dose: 1.5 mg/kg/injection, schedule: Q01DX011 (ip), vehicle: carboxymethylcellulose (CMC)); 44 % of control under setting [15]; 75 % of control (dose: 3.75 mg/kg/injection, schedule: Q01DX011 (ip), vehicle: carboxymethylcellulose (CMC)); 42 % of control under setting [7]; 64 % of control under setting [16]. The T/C (dose: 7.5 mg/kg/injection, schedule: Q01DX011 (ip), vehicle: carboxymethylcellulose (CMC)) is 10 % of control.

Regarding `CN(C)c1nc(N(C)C)nc(N(C)C)n1`, the T/C reads like this: (dose: 3.75 mg/kg/injection, schedule: Q01DX011 (ip), vehicle: other) 104 % of control; (dose: 7.5 mg/kg/injection, schedule: Q01DX011 (ip), vehicle: other) 83 % of control; (dose: 15.0 mg/kg/injection, schedule: Q01DX011 (ip), vehicle: other) 112 % of control; (dose: 30.0 mg/kg/injection, schedule: Q01DX011 (ip), vehicle: other) 84 % of control.

Source of the values: PubChem BioAssay AID228 (DTP/NCI, 2004).
